The values that follow come from ChEMBL document CHEMBL1201862, “PubChem BioAssay data set” (2004).

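Exposure lasted 48 hours, with cells grown in 96-well plates and compounds tested at five concentrations. Here, GI50 denotes the concentration required for 50% inhibition of growth.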 Calls of active or inactive are those of the source. Rule as the data show it: active = GI50 up to about 1.1 µM and inactive = higher. Some results are limits rather than exact numbers.

Some test systems named below: HCC 2998; HCT-15; HL-60; HOP-92; IGROV-1; K562; M19-MEL; NCI-H23; NCI-H460; NCI-H522; OVCAR-8; RPMI-8226; SK-MEL-28; SK-MEL-5; UO-31; A498; NCI/ADR-RES; PC-3; SR; T47D.
Assay in all cases: DTP human tumour cell line panel, 48 h

`O=C1c2ccccc2-c2cccc3ccc(Cc4ccccc4)c1c23`: the GI50 (as a rule, the concentration that inhibits growth by half) is > 100 µM (inactive) in the experiment on HCC 2998; greater than 100 µM in the experiment with HCT-15; > 100 µM (inactive) in the experiment on HL-60; > 100 µM (inactive) with HOP-92; > 100 µM (inactive) in the experiment with IGROV-1; 37.6 µM (inactive) with K562. The GI50 with M19-MEL, with NCI-H23, with NCI-H460, with NCI-H522, in the experiment with OVCAR-8 and in the experiment with RPMI-8226 was > 100 µM (inactive) throughout. Besides, the GI50 with SK-MEL-28, in the experiment with SK-MEL-5 and with UO-31 was > 100 µM (inactive) throughout.
`COC1(CC[C@@H](C)COC2OC(CO)C(O)C(O)C2O)O[C@H]2C[C@H]3[C@@H]4CC=C5C[C@@H](OC6OC(CO)C(O)C(OC7OC(CO)C(O)C(O)C7O)C6OC6OC(C)C(O)C(O)C6O)CC[C@]5(C)[C@H]4CC[C@]3(C)[C@H]2[C@@H]1C` (stereo not given in full): the GI50 in the experiment on A498 was 12.9 µM (inactive); in the experiment on HCC 2998, 3.56 µM (inactive); in the experiment on HCT-15, 3.28 µM; in the experiment with HL-60, 6.19 µM (inactive); in the experiment on HOP-92, 2.46 µM (inactive); in the experiment with IGROV-1 it was 7.24 µM (inactive). The GI50 is > 20.6 µM (inactive) in the experiment with K562; 14.5 µM (inactive) in the experiment with NCI-H23; 3.4 µM (inactive) with NCI-H460; 4.62 µM (inactive) with NCI-H522; 16 µM (inactive) in the experiment on NCI/ADR-RES; 8.77 µM (inactive) with OVCAR-8. Besides, the GI50 in the experiment on PC-3 is 6.82 µM (inactive); with RPMI-8226 it was 32.2 µM (inactive); in the experiment with SK-MEL-28, 5.45 µM (inactive); with SK-MEL-5, 9.84 µM (inactive); in the experiment on SR, 23.5 µM (inactive); with T47D it was 4.67 µM (inactive). In addition, in the experiment on UO-31, the GI50 was 4.5 µM (inactive).
With `CN1CN(c2ccccc2)C2(CCNCC2)C1=O`, the GI50 with A498 was > 100 µM (inactive); with HCC 2998, > 100 µM (inactive); in the experiment with HCT-15 it was greater than 100 µM; in the experiment with HL-60 it was > 100 µM (inactive); in the experiment on HOP-92 it was > 100 µM (inactive); in the experiment with IGROV-1 it was > 100 µM (inactive). The GI50 in the experiment with K562, in the experiment with NCI-H23, in the experiment with NCI-H460, with NCI-H522, in the experiment with NCI/ADR-RES and with OVCAR-8 was > 100 µM (inactive) throughout. Also, the GI50 in the experiment with PC-3, with RPMI-8226, in the experiment on SK-MEL-28, in the experiment on SK-MEL-5, in the experiment on SR and in the experiment on T47D was > 100 µM (inactive) each time. In the experiment with UO-31, the GI50 is > 100 µM (inactive).
On to `ClC1(c2ccccc2)c2ccc(Br)cc2-c2cc(Br)ccc21`, for which the GI50 with A498 is 18.8 µM (inactive); with HCC 2998, 19.7 µM (inactive); in the experiment on HCT-15, 16 µM; with HL-60, 19.3 µM (inactive); in the experiment on HOP-92, 15.6 µM (inactive); in the experiment on IGROV-1, 16.2 µM (inactive). Further, the GI50 was > 100 µM (inactive) with K562; 15 µM (inactive) in the experiment with NCI-H23; 14.3 µM (inactive) in the experiment on NCI-H460; 14.2 µM (inactive) in the experiment with NCI-H522; 18.1 µM (inactive) in the experiment on NCI/ADR-RES; 18.2 µM (inactive) in the experiment with OVCAR-8. Also, the GI50 with PC-3 was 17.4 µM (inactive); with RPMI-8226, 28.7 µM (inactive); in the experiment with SK-MEL-28, 18.8 µM (inactive); in the experiment with SK-MEL-5, 15.7 µM (inactive); in the experiment on SR, 32.7 µM (inactive); with T47D it was 19.7 µM (inactive). Besides, the GI50 with UO-31 was 15.5 µM (inactive).
Regarding `O=c1c2c(no[n+]2[O-])c2ccccc2n1-c1ccccc1`, the GI50 with A498 was 15.6 µM (inactive); in the experiment with HCC 2998, 10.5 µM (inactive); in the experiment with HCT-15, 2.94 µM; with HL-60, 2.12 µM (inactive); in the experiment on HOP-92, 8.47 µM (inactive); with IGROV-1, 3.75 µM (inactive). Moreover, the GI50 in the experiment on K562 is 2.74 µM (inactive); in the experiment on NCI-H23, 2.44 µM (inactive); with NCI-H460, 8.2 µM (inactive); with NCI-H522, 1.73 µM (inactive); with NCI/ADR-RES, 14.6 µM (inactive); in the experiment with OVCAR-8, 6.18 µM (inactive). Moreover, the GI50 was 14.3 µM (inactive) in the experiment on PC-3; 5.87 µM (inactive) with RPMI-8226; 5.46 µM (inactive) in the experiment with SK-MEL-28; 11.1 µM (inactive) in the experiment on SK-MEL-5; 2.82 µM (inactive) in the experiment with SR; 12.9 µM (inactive) in the experiment on T47D. In the experiment on UO-31, the GI50 was 11.9 µM (inactive).
In the case of `Brc1ccc(CCNCCN2CCCCC2)cc1`, the GI50 in the experiment with A498 was 18 µM (inactive); in the experiment on HCC 2998 it was 14.5 µM (inactive); in the experiment on HCT-15 it was 18.1 µM; in the experiment on HL-60, 33 µM (inactive); in the experiment on HOP-92, 10.8 µM (inactive); in the experiment on IGROV-1 it was 17.1 µM (inactive). For the same compound, the GI50 in the experiment on K562 is 4.1 µM (inactive); in the experiment on NCI-H23, 16.4 µM (inactive); in the experiment on NCI-H460, 14.7 µM (inactive); in the experiment on NCI-H522, 16.4 µM (inactive); with NCI/ADR-RES, 21.1 µM (inactive); in the experiment on OVCAR-8 it was 16.5 µM (inactive). Further, the GI50 in the experiment on PC-3 was 15.6 µM (inactive); with RPMI-8226, 37.7 µM (inactive); in the experiment on SK-MEL-28 it was 11.8 µM (inactive); in the experiment with SK-MEL-5, 8.07 µM (inactive); in the experiment on SR it was > 100 µM (inactive); in the experiment with T47D it was 15.6 µM (inactive). The GI50 in the experiment with UO-31 was 12.2 µM (inactive).
As to `COc1cc(CCNC2=CC(=O)c3nc[nH]c3C2=O)ccc1O`, the GI50 was 34.4 µM (inactive) in the experiment on A498; 20.7 µM (inactive) in the experiment on HCC 2998; 33 µM in the experiment on HCT-15; 25.6 µM (inactive) with HL-60; 25.3 µM (inactive) in the experiment on HOP-92; 23.2 µM (inactive) in the experiment with IGROV-1. The GI50 with K562 was 34.1 µM (inactive); in the experiment on NCI-H23, 20.7 µM (inactive); in the experiment on NCI-H460, 25.7 µM (inactive); in the experiment with NCI-H522, 22.7 µM (inactive); in the experiment with NCI/ADR-RES it was > 100 µM (inactive); in the experiment on OVCAR-8, 19.6 µM (inactive). Besides, the GI50 is 26.4 µM (inactive) in the experiment with PC-3; 29.4 µM (inactive) with RPMI-8226; 26.7 µM (inactive) in the experiment on SK-MEL-28; 14.4 µM (inactive) in the experiment on SK-MEL-5; 30.7 µM (inactive) with SR; 20.7 µM (inactive) in the experiment with T47D. The GI50 in the experiment with UO-31 is 40.3 µM (inactive).
As for `O=C(N/N=C\c1ccc(Cl)cc1)Nc1cccc2ccccc12`, the GI50 in the experiment with A498 is 2.67 µM (inactive); with HCC 2998 it was 2.4 µM (inactive); in the experiment with HCT-15 it was 3.36 µM; in the experiment on HL-60, 4.93 µM (inactive); in the experiment on HOP-92 it was 4.91 µM (inactive); in the experiment on IGROV-1 it was 3.49 µM (inactive). The GI50 with K562 was 3.23 µM (inactive); in the experiment on NCI-H23, 9.71 µM (inactive); in the experiment on NCI-H460, 3.24 µM (inactive); in the experiment on NCI-H522, 4.83 µM (inactive); in the experiment on NCI/ADR-RES, > 25 µM (inactive); with OVCAR-8 it was 5.2 µM (inactive). Moreover, the GI50 in the experiment with PC-3 was 5.97 µM (inactive); with RPMI-8226 it was 5.66 µM (inactive); with SK-MEL-28, 22.5 µM (inactive); in the experiment with SK-MEL-5 it was 4.45 µM (inactive); with SR, 3.16 µM (inactive); in the experiment with T47D, 5.52 µM (inactive). Moreover, the GI50 in the experiment with UO-31 was 2.1 µM (inactive).
`O=c1cc(/N=N\c2ccc(Cl)cc2)[nH]c(=O)[nH]1`: the GI50 in the experiment on A498 was > 10 µM (inactive); in the experiment on HCC 2998, 3.78 µM (inactive); with HCT-15, 1.96 µM; with HL-60 it was 1.11 µM (active); in the experiment with HOP-92 it was 2.07 µM (inactive); with IGROV-1 it was 3.44 µM (inactive). The GI50 was 3.43 µM (inactive) in the experiment on K562; 7.67 µM (inactive) in the experiment on NCI-H23; 5.52 µM (inactive) in the experiment with NCI-H460; 1.71 µM (inactive) in the experiment with NCI-H522; 7.4 µM (inactive) in the experiment on NCI/ADR-RES; 5.68 µM (inactive) with OVCAR-8. The GI50 in the experiment on PC-3 is 7.05 µM (inactive); in the experiment with RPMI-8226, 3.19 µM (inactive); in the experiment on SK-MEL-28, 4.69 µM (inactive); in the experiment on SK-MEL-5, 10.6 µM (inactive); in the experiment with SR, 1.2 µM (inactive); in the experiment on T47D, 3.18 µM (inactive). Further, the GI50 with UO-31 was 4.82 µM (inactive).
Consider `N#C[BH2-][n+]1cn(C2CC(OP(=O)(O)OCC3OC(n4cnc5c(=O)[nH]c(N)nc54)CC3O)C(CO)O2)c2nc(N)[nH]c(=O)c21` (stereo not given), for which the GI50 in the experiment with A498 is > 100 µM (inactive); in the experiment with HCC 2998 it was > 100 µM (inactive); in the experiment with HCT-15, greater than 100 µM; in the experiment on HL-60 it was > 100 µM (inactive); in the experiment on HOP-92, > 100 µM (inactive); with IGROV-1 it was > 100 µM (inactive). The GI50 in the experiment on K562 was 55.5 µM (inactive); with NCI-H23, > 100 µM (inactive); with NCI-H460, > 100 µM (inactive); in the experiment with NCI-H522, > 100 µM (inactive); in the experiment on NCI/ADR-RES, > 100 µM (inactive); in the experiment with OVCAR-8, > 100 µM (inactive). In addition, the GI50 in the experiment on PC-3, with RPMI-8226, with SK-MEL-28, in the experiment on SK-MEL-5, in the experiment with SR and in the experiment on T47D was > 100 µM (inactive) each time. In the experiment with UO-31, the GI50 is > 100 µM (inactive).
Regarding `NC(=S)N/N=C/c1ncccc1N` [TRIAPINE], the concentration for 50% growth inhibition (GI50) is 0.615 µM (active) with A498; 1.62 µM (inactive) in the experiment on HCC 2998; 1.97 µM in the experiment with HCT-15; 1.03 µM (active) with HL-60; 0.553 µM (active) with HOP-92; > 10 µM (inactive) with IGROV-1. Also, the GI50 in the experiment with K562 is 3.13 µM (inactive); in the experiment on NCI-H23, 0.332 µM (active); in the experiment on NCI-H460, 1.68 µM (inactive); with NCI-H522, 2.03 µM (inactive); with NCI/ADR-RES, 2.04 µM (inactive); in the experiment with OVCAR-8, 0.568 µM (active). For the same compound, the GI50 in the experiment on PC-3 is 1.57 µM (inactive); with RPMI-8226, 0.792 µM (active); in the experiment on SK-MEL-28, > 10 µM (inactive); in the experiment on SK-MEL-5, 0.968 µM (active); in the experiment with SR, 0.403 µM (active); in the experiment with T47D, 4.39 µM (inactive). For the same compound, the GI50 with UO-31 was 0.37 µM (active).
